The source of these data is US6841569B2, “Carbamates of 2-heterocyclic-1,2-ethanediols” (SK Corporation, priority 2001, dated 2005).

In one data set the test system is mice (ICR strain). Briefly: Maximal ElectroShock (MES) test. The conditions noted are these: dosed i.p., Hour 1, elimination of hindlimb tonic extension, 50 mA-60 Hz for 0.2 second. It counts as in vivo. How it is done:
The therapeutic use of the compounds of formula I as anticonvulsants has been established by the “Maximal ElectroShock (MES)” test, which is a well-established pharmacological screening method for anticonvulsants against partial seizures, and the results are presented in Table I. The procedure employed in the MES test for anticonvulsants is as follows. The dosing solutions of the compounds to be tested were prepared in saline. The subjects, namely, mice (ICR strain), were dosed i.p. After the designated number of hours, maximal electroshock was induced in mice via corneal electrodes using IITC Life Science model 11A Shocker at 50 mA-60 Hz for 0.2 second. […] Median efficacy dose (ED50) levels were determined using three different dose levels with at least 6 mice in each group.
(In general: Protection in the maximal electroshock model is a classic sign of anticonvulsant action.)

Usually melting point stands for the temperature of the solid-liquid transition. Turning to `O=NC(=O)CC(O)c1cccs1` (stereo not drawn) [Example 21, (2-(2-thienyl)-2-hydroxyethyl)oxocarboxamide], the melting point was 71 to 73 °C.

Consider `NC(=O)OCC(OC(N)=O)c1ccc(C(F)(F)F)s1` (stereo not drawn) [Example 14, (2-(5-trifluoromethyl-2-thienyl)-2-carbomoyloxyethyl)oxocarboxamide], for which, in the data set on mice (ICR strain), the “MES ED50” value is 12.6 mg/kg.

`CNC(=O)OCC(OC(=O)NC)c1ccc(Cl)s1` (stereo not drawn) [Example 7]: the “MES ED50” value with mice (ICR strain) amounted to 37.4 mg/kg.
